# Test results as given in patent US11304929B2, “Tosylacetate based compounds and derivatives thereof as PHGDH inhibitors” (priority 2017, dated 2022).
# Read-outs that look alike come from different tables or passages of the source.
# Assays:
# MDA-MB-468 = test: 13C3 Serine Assay MDA-MB-468 (13C3 serine levels by LC/MS/MS); type: cell-based; details: Homo sapiens
# PHGDH = PHGDH (Homo sapiens (Human), UniProt O43175); test: 3-Phosphoglycerate Dehydrogenase (PHGDH) Fluorescence Intensity Assay, run at two NAD/3-PG ratios: PHGDH_HIGH_NAD/3-PG (250 μM NAD/500 μM 3-PG) and PHGDH_500_NAD/3-PG (500 μM NAD/500 μM 3-PG); type: biochemical
# Chain of PHGDH (O43175 2-533 limits assumed): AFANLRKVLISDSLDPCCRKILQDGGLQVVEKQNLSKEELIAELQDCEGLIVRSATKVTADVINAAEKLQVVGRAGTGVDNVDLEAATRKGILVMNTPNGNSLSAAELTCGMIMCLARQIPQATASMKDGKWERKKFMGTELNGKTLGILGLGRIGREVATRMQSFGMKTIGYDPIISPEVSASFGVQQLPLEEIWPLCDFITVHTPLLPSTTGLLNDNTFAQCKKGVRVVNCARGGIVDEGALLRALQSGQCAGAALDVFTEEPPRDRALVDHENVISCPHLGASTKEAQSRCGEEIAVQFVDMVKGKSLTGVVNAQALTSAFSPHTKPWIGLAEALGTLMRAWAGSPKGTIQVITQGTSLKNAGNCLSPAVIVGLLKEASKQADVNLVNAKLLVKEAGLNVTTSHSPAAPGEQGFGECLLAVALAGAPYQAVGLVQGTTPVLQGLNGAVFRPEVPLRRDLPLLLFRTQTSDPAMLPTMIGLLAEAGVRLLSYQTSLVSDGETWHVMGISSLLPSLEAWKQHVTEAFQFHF
# [1] = MDA-MB-468 cells, 13C3 serine levels by LC/MS/MS, read-out: IC50 (13CSERINE)
# [2] = 250 μM NAD/500 μM 3-PG, read-out: IC50 (PHGDH_HIGH_NAD/3-PG)
# [3] = MDA-MB-468, read-out: IC50 (13CSERINE)
# [4] = 500 μM NAD/500 μM 3-PG, read-out: IC50 (PHGDH_500_NAD/3-PG)
SMILES,IC50 (MDA-MB-468; [1]) [µM],IC50 (PHGDH; [2]) [µM],IC50 (MDA-MB-468; [3]) [µM],IC50 (PHGDH; [4]) [µM]
"Cc1cc(Cl)c2cc(C(=O)N[C@H](C)c3ccc(S(=O)(=O)CC(=O)OCCOCCO)cc3)n(C)c2c1 [Example 09-005, 2-(2-hydroxyethoxy)ethyl 2-{4-[(1R)-1-[(4-chloro-1,6-dimethyl-1H-indol-2-yl)formamido]ethyl]benzenesulfonyl}acetate]",0.139,0.197,,
"CC(C)OC(=O)CS(=O)(=O)c1ccc([C@@H](C)NC(=O)c2cc3c(Cl)cc(-c4cnn(C)c4)cc3n2C)cc1 [Example 01-011, propan-2-yl 2-{4-[(1R)-1-{[4-chloro-1-methyl-6-(1-methyl-1H-pyrazol-4-yl)-1H-indol-2-yl]formamido}ethyl]benzenesulfonyl}acetate]",0.489,1.93,,
"Cc1cc(Cl)c2cc(C(=O)N[C@H](C)c3ccc(S(=O)(=O)CC(=O)O)cc3)n(C)c2c1 [Example 03-009, 2-{4-[(1R)-1-[(4-chloro-1,6-dimethyl-1H-indol-2-yl)formamido]ethyl]benzenesulfonyl}acetic acid]",,0.008,3.57,
"CCOCCOCCOC(=O)CS(=O)(=O)c1ccc([C@@H](C)NC(=O)c2cc3c(Cl)cc(C)cc3n2C)cc1 [Example 09-001, 2-(2-ethoxyethoxy)ethyl 2-{4-[(1R)-1-[(4-chloro-1,6-dimethyl-1H-indol-2-yl)formamido]ethyl]benzenesulfonyl}acetate]",0.0538,0.289,,
"Cc1cc(Cl)c2cc(C(=O)N[C@H](C)c3ccc(S(=O)(=O)CC(=O)OCc4cccc(C(F)(F)F)c4)cc3)n(C)c2c1 [Example 09-011, [3-(trifluoromethyl)phenyl]methyl 2-{4-[(1R)-1-[(4-chloro-1,6-dimethyl-1H-indol-2-yl)formamido]ethyl]benzenesulfonyl}acetate]",0.0201,3.51,,
"CCOC(=O)CS(=O)(=O)c1ccc([C@@H](C)NC(=O)c2cc(-c3ccc(F)cc3)nn2C)cc1 [Example 02-004, ethyl 2-{4-[(1R)-1-{[3-(4-fluorophenyl)-1-methyl-1H-pyrazol-5-yl]formamido}ethyl]benzenesulfonyl}acetate]",0.0621,3.1,,
"CC(=O)OCCOC(=O)CS(=O)(=O)c1ccc([C@@H](C)NC(=O)c2cc3c(Cl)cc(C)cc3n2C)cc1 [Example 09-002, 2-(acetyloxy)ethyl 2-{4-[(1R)-1-[(4-chloro-1,6-dimethyl-1H-indol-2-yl)formamido]ethyl]benzenesulfonyl}acetate]",0.069,0.23,,
"Cc1cc(Cl)c2cc(C(=O)N[C@H](C)c3ccc(S(=O)(=O)CC(=O)OCC(C)C)cc3)n(C)c2c1 [Example 09-013, 2-methylpropyl 2-{4-[(1R)-1-[(4-chloro-1,6-dimethyl-1H-indol-2-yl)formamido]ethyl]benzenesulfonyl}acetate]",0.0701,19.3,,
"COC(=O)CS(=O)(=O)c1ccc([C@@H](CO)NC(=O)c2cc3c(Cl)c(Cl)c(C)nc3n2C)cc1 [Example 01-023, methyl 2-{4-[(1S)-1-({4,5-dichloro-1,6-dimethyl-1H-pyrrolo[2,3-b]pyridin-2-yl}formamido)-2-hydroxyethyl]benzenesulfonyl}acetate]",0.0008,0.216,,
"COCCOC(=O)C(C)(C)S(=O)(=O)c1ccc([C@@H](C)NC(=O)c2cc3c(Cl)c(Cl)c(C)nc3n2C)cc1 [Example 05-018, 2-methoxyethyl 2-{4-[(1R)-1-({4,5-dichloro-1,6-dimethyl-1H-pyrrolo[2,3-b]pyridin-2-yl}formamido)ethyl]benzenesulfonyl}-2-methylpropanoate]",0.142,5.33,,
"COC(=O)CS(=O)(=O)c1ccc([C@@H](C)NC(=O)c2cc3c(Cl)c(Cl)c(C)cc3n2C)cc1 [Example 01-001, methyl 2-{4-[(1R)-1-[(4,5-dichloro-1,6-dimethyl-1H-indol-2-yl)formamido]ethyl]benzenesulfonyl}acetate]",0.007,0.441,,
"COC(=O)C(C)S(=O)(=O)c1ccc([C@@H](C)NC(=O)c2cc3c(Cl)cc(C)cc3n2C)cc1 (stereo partly drawn) [Example 05-009, methyl 2-{4-[(1R)-1-[(4-chloro-1,6-dimethyl-1H-indol-2-yl)formamido]ethyl]benzenesulfonyl}propanoate]",0.0016,1.68,,
"Cc1cc(Cl)c2cc(C(=O)N[C@H](C)c3ccc(S(=O)(=O)C(C)C(=O)OC(C)C)cc3)n(C)c2c1 (stereo partly drawn) [Example 05-004, propan-2-yl 2-{4-[(1R)-1-[(4-chloro-1,6-dimethyl-1H-indol-2-yl)formamido]ethyl]benzenesulfonyl}propanoate]",0.0101,11.8,,
"CO[C@@H](C)COC(=O)CS(=O)(=O)c1ccc([C@@H](C)NC(=O)c2cc3c(Cl)cc(C)cc3n2C)cc1 [Example 09-004, (2S)-2-methoxypropyl 2-{4-[(1R)-1-[(4-chloro-1,6-dimethyl-1H-indol-2-yl)formamido]ethyl]benzenesulfonyl}acetate]",0.0786,0.394,,
"CC(C)OC(=O)CS(=O)(=O)c1ccc([C@@H](C)NC(=O)c2cc(-c3ccccc3)nn2C)cc1 [Example 02-011, propan-2-yl 2-{4-[(1R)-1-[(1-methyl-3-phenyl-1H-pyrazol-5-yl)formamido]ethyl]benzenesulfonyl}acetate]",0.135,6.72,,
"COC(=O)CS(=O)(=O)c1ccc([C@@H](C)NC(=O)c2cc3c(Cl)cc(C)cc3n2C)cc1 [Example 01-012, methyl 2-{4-[(1R)-1-[(4-chloro-1,6-dimethyl-1H-indol-2-yl)formamido]ethyl]benzenesulfonyl}acetate]",0.0525,0.412,,
"COC(=O)C1(S(=O)(=O)c2ccc([C@@H](C)NC(=O)c3cc4c(Cl)cc(C)cc4n3C)cc2)CC1 [Example 05-019, methyl 1-{4-[(1R)-1-[(4-chloro-1,6-dimethyl-1H-indol-2-yl)formamido]ethyl]benzenesulfonyl}cyclopropane-1-carboxylate]",0.509,5.31,,
"CCCC(C(=O)O)S(=O)(=O)c1ccc([C@@H](C)NC(=O)c2cc3c(Cl)cc(C)cc3n2C)cc1 (stereo partly drawn) [Example 07-012, 2-{4-[(1R)-1-[(4-chloro-1,6-dimethyl-1H-indol-2-yl)formamido]ethyl]benzenesulfonyl}pentanoic acid]",2.39,0.006,,0.016
"CCOC(=O)CS(=O)(=O)c1ccc([C@@H](CO)NC(=O)c2cc3c(Cl)c(Cl)c(C)cc3n2C)cc1 [Example 01-002, ethyl 2-{4-[(1S)-1-[(4,5-dichloro-1,6-dimethyl-1H-indol-2-yl)formamido]-2-hydroxyethyl]benzenesulfonyl}acetate]",,0.169,0.0029,0.258
"Cc1cc(Cl)c2cc(C(=O)N[C@H](C)c3ccc(S(=O)(=O)CC(=O)OC4CCOCC4)cc3)n(C)c2c1 [Example 09-014, oxan-4-yl 2-{4-[(1R)-1-[(4-chloro-1,6-dimethyl-1H-indol-2-yl)formamido]ethyl]benzenesulfonyl}acetate]",0.0147,1.04,,
"Cc1cc(Cl)c2cc(C(=O)N[C@H](C)c3ccc(S(=O)(=O)C(C)C(=O)OC(C)(C)C)cc3)n(C)c2c1 (stereo partly drawn) [Example 05-001, tert-butyl 2-{4-[(1R)-1-[(4-chloro-1,6-dimethyl-1H-indol-2-yl)formamido]ethyl]benzenesulfonyl}propanoate]",0.891,24.4,,
